According to ChEMBL document CHEMBL3991601, “The target landscape of clinical kinase drugs” (Science, 2017):
Active and inactive are the calls of the source. Unless noted, no cut-off for these calls is given here.

Assays:
[1] = target: Putative nucleoside diphosphate kinase (Homo sapiens, UniProt O60361)
[2] = target: Actin-related protein 3 (Homo sapiens, UniProt P61158)
[3] = target: T1, General transcription and DNA repair factor IIH helicase subunit XPD (Homo sapiens, UniProt P18074)
T1 sequence (P18074 whole entry): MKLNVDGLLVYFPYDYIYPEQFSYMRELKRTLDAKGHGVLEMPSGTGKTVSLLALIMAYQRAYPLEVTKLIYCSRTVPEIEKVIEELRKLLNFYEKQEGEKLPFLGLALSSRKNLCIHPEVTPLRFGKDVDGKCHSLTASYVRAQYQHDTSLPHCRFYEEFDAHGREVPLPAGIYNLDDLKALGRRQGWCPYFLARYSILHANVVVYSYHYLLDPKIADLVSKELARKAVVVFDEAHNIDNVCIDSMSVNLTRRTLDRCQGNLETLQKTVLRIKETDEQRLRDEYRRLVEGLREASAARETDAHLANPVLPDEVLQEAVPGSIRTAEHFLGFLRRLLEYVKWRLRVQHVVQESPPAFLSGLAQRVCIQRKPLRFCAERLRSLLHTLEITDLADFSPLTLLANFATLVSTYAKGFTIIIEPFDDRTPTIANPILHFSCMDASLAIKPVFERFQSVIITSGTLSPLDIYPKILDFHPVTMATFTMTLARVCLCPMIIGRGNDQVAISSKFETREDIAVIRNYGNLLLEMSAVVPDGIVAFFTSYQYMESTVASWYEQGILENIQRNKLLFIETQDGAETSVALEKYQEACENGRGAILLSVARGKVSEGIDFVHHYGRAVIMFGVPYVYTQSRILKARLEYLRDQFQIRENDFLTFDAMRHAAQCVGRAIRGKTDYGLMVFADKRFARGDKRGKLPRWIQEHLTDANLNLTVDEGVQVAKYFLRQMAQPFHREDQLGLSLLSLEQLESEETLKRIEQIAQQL

[4] = target: 5'-AMP-activated protein kinase subunit gamma-1 (Homo sapiens, UniProt P54619)
5'-AMP-activated protein kinase subunit gamma-1, sequence (P54619 whole entry): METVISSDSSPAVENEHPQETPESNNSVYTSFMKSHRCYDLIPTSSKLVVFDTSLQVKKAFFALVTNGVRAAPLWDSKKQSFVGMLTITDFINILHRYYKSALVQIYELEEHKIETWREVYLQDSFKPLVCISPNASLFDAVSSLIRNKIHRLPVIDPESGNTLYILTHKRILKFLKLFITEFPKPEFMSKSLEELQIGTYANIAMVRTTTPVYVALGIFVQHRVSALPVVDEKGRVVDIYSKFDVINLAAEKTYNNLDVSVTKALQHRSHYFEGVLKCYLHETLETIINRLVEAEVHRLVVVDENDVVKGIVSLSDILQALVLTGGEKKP

[5] = target: 5'-AMP-activated protein kinase subunit gamma-2 (Homo sapiens, UniProt Q9UGJ0)
5'-AMP-activated protein kinase subunit gamma-2, sequence (Q9UGJ0 whole entry): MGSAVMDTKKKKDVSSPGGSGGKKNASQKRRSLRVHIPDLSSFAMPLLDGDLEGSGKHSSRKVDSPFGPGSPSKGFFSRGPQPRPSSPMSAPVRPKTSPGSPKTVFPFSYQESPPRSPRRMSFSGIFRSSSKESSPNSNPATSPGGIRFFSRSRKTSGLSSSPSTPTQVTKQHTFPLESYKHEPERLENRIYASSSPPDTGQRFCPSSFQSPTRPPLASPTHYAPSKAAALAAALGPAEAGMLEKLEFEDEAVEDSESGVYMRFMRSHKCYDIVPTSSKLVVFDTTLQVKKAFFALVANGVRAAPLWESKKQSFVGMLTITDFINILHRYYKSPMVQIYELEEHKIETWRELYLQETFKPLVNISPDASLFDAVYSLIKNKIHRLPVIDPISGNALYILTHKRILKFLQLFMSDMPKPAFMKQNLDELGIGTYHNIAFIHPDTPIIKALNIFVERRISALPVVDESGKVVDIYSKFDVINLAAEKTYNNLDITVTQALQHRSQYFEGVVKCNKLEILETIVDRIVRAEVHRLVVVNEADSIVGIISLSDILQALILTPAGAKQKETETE

[6] = target: T2, Uncharacterized protein FLJ45252 (Homo sapiens, UniProt Q6ZSR9)
T2 sequence (Q6ZSR9 whole entry): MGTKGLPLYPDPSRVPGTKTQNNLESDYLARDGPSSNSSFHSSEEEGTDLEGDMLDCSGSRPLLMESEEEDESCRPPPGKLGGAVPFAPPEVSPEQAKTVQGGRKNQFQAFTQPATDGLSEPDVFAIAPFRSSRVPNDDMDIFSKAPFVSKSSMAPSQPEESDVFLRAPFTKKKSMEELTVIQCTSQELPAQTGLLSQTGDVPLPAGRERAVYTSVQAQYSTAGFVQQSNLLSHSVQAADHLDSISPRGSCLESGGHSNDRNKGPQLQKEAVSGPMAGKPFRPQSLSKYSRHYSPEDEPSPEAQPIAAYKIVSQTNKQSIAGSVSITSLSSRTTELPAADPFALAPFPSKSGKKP

Putative nucleoside diphosphate kinase, sequence (O60361 whole entry): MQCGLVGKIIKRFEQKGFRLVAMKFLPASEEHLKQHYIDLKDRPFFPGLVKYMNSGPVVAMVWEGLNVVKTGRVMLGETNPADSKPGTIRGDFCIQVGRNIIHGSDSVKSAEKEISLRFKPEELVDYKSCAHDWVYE

SMILES | Kd [1] | Kd [2] | Kd [3] | Kd [4] | Kd [5] | Kd [6]
COc1cc(Nc2ncc3c(n2)-c2ccc(Cl)cc2C(c2c(F)cccc2OC)=NC3)ccc1C(=O)O [ALISERTIB] | > 30 µM (inactive) |  |  |  |  | 
NC(=O)Nc1cc(-c2cccc(F)c2)sc1C(=O)N[C@H]1CCCNC1 [AZD-7762] |  | > 30 µM (inactive) |  |  |  | 
COc1c(OCCCN2CCOCC2)ccc2c1N=C(NC(=O)c1cnc(N)nc1)N1CCN=C21 [COPANLISIB] |  |  | > 30 µM (inactive) | > 30 µM (inactive) | > 30 µM (inactive) | > 30 µM (inactive)
O=C(Nc1nc2cccc(-c3ccc(CN4CCS(=O)(=O)CC4)cc3)n2n1)C1CC1 [FILGOTINIB] |  |  | > 30 µM (inactive) | > 30 µM (inactive) | > 30 µM (inactive) | 4.38 µM (active)
COc1ncc(-c2ccc3nccc(-c4ccnnc4)c3c2)cc1NS(=O)(=O)c1ccc(F)cc1F [OMIPALISIB] | > 30 µM (inactive) |  |  |  |  | 
Cc1nc(Nc2n[nH]c3c2CN(C(=O)N[C@H](CN(C)C)c2ccccc2)C3(C)C)c2sccc2n1 [PF-03758309] |  | > 30 µM (inactive) |  |  |  | 
